Results on nine molecules are retold here after US20230295201A1 (Gilead Sciences, Inc., priority 2020, published 2023).

Read-outs that look alike come from different tables or passages of the source.

In one series the test system is HRV16. Kind of series: HRV16 HELA EC50 (cytopathic effect in H1-HeLa cells). The series is classed as cell-based. Particulars: 96 h, H1-HeLa cells, 33° C., read-out: HRV16 HELA EC50. The gist of the method: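 Read-out is luminescent cell viability (CellTiter-Glo) after 96 h of infection at 33 °C, scaled between uninfected and infected-untreated wells. Before infection with titrated virus, compounds went onto H1-HeLa cells as triplicate 3-fold dilution series.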

The subject of another series is RSV A2. Kind of series: RSV NHBE EC50 (RSV A2 antiviral assay in normal human bronchial epithelial cells). It counts as cell-based. Particulars: NHBE cells, RSV A2, 4 days, read-out: RSV NHBE EC50.
Series [1] in a line: HEp-2 CC50 (cytotoxicity, Cell-Titer Glo). The series is classed as cell-based. Particulars: human; uninfected HEp-2 cells, 4-5 days. As for the experimental part:
The same protocol as for the determination of antiviral activity is used for the measurement of compound cytotoxicity except that the cells are not infected with RSV. Instead, an uninfected cell mixture at the same density is added at 20 ul/well to plates containing prediluted compounds, also at 100 nL/sample. Assay plates are then incubated for 4 days followed by a cell viability test using the same CellTiter Glo reagent addition and measurement of luminescent readouts.

For another series, the system named is RSV strain A2. Nature of the series: RSV HEp-2 EC50 (infectious cytopathic cell protection assay). The series is classed as cell-based. The following applies: HEp-2 cells, RSV A2, 4 days, read-out: RSV HEp-2 EC50. The gist of the method: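 Percent inhibition of RSV-induced cytopathic effect came from remaining cell viability (CellTiter-Glo luminescence) after 4 days at 37° C. Compounds in 3-fold serial dilutions were exposed to an infectious mix of titered A2 virus and HEp-2 cells at 50,000/ml, with 0% and 100% inhibition control standards.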
(In general: Cytopathic effects are the visible damage that an infection or toxin causes in cultured cells.)

For a further series, the system named is DENV2 replicon. Kind of series: DENV-2 Huh-7 Rep EC50 (replicon luminescence). The series is classed as cell-based. The following applies: Dengue virus, DENV2, Huh-7, 48 h, Huh-7 replicon cells, 48 hours; read-out: DENV-2 Huh-7 Rep EC50. The gist of the method: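 EC50 derived from luminescence dose-response, normalised to DMSO-only 0% inhibition wells, after 1.5 h with EnduRen substrate. Compounds were first exposed for 48 h at 37° C to DENV2 replicon Huh-7 cells (5,000/well).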
Background: Replicon systems follow genome replication, usually without infectious particles.

A short description of series [2]: in vitro. Particulars: human.
Method: HEp-2 (1.5×10^3 cells/well) and MT-4 (2×10^3 cells/well) cells were plated in 384-well plates and incubated with the appropriate medium containing 3-fold serially diluted compound ranging from 15 nM to 100,000 nM. Cells were cultured for 4-5 days at 37° C. Following the incubation, the cells were allowed to equilibrate to 25° C., and cell viability was determined by adding Cell-Titer Glo viability reagent. The mixture was incubated for 10 min, and the luminescence signal was quantified using an Envision plate reader. Untreated cell and cells treated at 2 μM puromycin (Sigma, St. Louis, MO) serve as 100% and 0% cell viability control, respectively.
Series [3] concerns Dengue serotype 2 New Guinea C (NGC) strain. Kind of series: DENV-2 Huh-7 EC50 (qPCR in Huh7 cells). It counts as cell-based. Particulars: Dengue virus, DENV2, Huh-7, 48 h. As for the experimental part:
Huh7 (Human hepatocarcinoma 7) cells were maintained in 10% FCS-containing DMEM complete media. On the day of the assay, cells were trypsinized (0.1% Trypsin-EDTA), washed and infected for 2 hours in serum-free DMEM with Dengue serotype 2 New Guinea C (NGC) strain at MOI=0.1 with gentle agitation at 37° C. After 2 hours, cells were washed with serum-free media and suspended in 10% FCS-containing DMEM (Gibco, supplemented with sodium pyruvate, NEAA, Penicillin-Streptomycin). 10^5 cells were plated in triplicate in 96-well plates with compounds dispensed at graded doses (Hewlett-Packard D300 Digital Dispenser). All wells were normalized to 0.25% DMSO. At 48 hours, cells were washed with 1×PBS and all supernatants removed. Total RNA was extracted using RNEasy 96 plates (Qiagen) and used to generate first-strand cDNA using XLT cDNA 5×Supermix (QuantaBio). cDNA was used as a template in a Taqman qPCR duplex reaction specific to DENV2 viral and GAPDH gene expression. EC50 values were determined using Prism Graphpad software, with normalization to a positive control and no compound negative control wells.
(In general: In qPCR the cycle at which signal appears reflects the starting amount.)

The test system of a further series is RSV A strain A2. Kind of series: RSV HAE EC50 (intracellular RSV RNA by real-time PCR in HAE cells). The series is classed as cell-based. The following applies: read-out: RSV HAE EC50. As for the experimental part: HAE cells are cultured at the air-liquid interface and have an apical side that is exposed to the air and a basal side that is in contact with the medium. Prior to experimentation, HAE were removed from their agar-based shipping packaging and were acclimated to 37° C./5% CO2 overnight in 1 ml of HAE Assay medium (AIR-100-MM, Mattek Corp). HAE were prepared for infection by washing the apical surface twice with 400 μL of PBS (either utilizing direct pipetting methods or by running each transwell through a trough containing PBS) to remove the mucus layer. Apical chambers were drained of PBS and tapped gently onto absorbent material to remove as much PBS as possible. After washing, the cells were transferred to fresh HAE maintenance media containing 4-fold serially diluted compound, delivered to the basal side of the cell monolayer, and apically infected with 100 μL of a 1:600 dilution of RSV A strain A2 1000× stock (ABI, Columbia, MD, cat #10-124-000) in HAE assay medium for 3 hours at 37° C. in 5% CO2. The virus inoculum was removed and the apical surface of the cells was washed 3 times with PBS using either method previously described. The cells were then cultured in the presence of compound for 3 days at 37° C. Following the incubation, total RNA was extracted from the HAE cells using a MagMAX-96 Viral RNA isolation kit (Applied Biosystems, Foster City, CA, Cat #AM1836) and intracellular RSV RNA was quantified by real-time PCR. Approximately 25 ng of purified RNA was added to a PCR reaction mixture that contained 0.9 μM RSV N Forward and RSV N Reverse primers, 0.2 μM RSV N Probe and 1×Taqman RNA-to-Ct 1-Step Kit (Applied Biosystems, Foster City, CA, Cat #4392938). RNA levels were normalized using a Tagman GAPDH control primer set (Applied Biosystems, Foster City, CA, Cat #402869). Real-Time PCR Primers and Probe Used in the RSV A2 HAE Antiviral Assay: […]

The nature of series [4]: in vitro. The following applies: human. This is another data set of the same source.
The next series relates to HRV14. Nature of the series: HRV14 HELA EC50 (cytopathic effect in H1-HeLa cells). It counts as cell-based. Particulars: 96 h, read-out: HRV14 HELA EC50. Here is the method: (§1) H1-HeLa cells, cultured in complete RPMI 1640 medium containing 10% heat-inactivated FBS and 1% Penicillin/Streptomycin, were seeded in 96 well plates at 5000 cells/well one day prior to compound dosing and infection. The antiviral activity of each compound was measured in triplicate. Compounds were added directly to the cell cultures in serial 3-fold dilutions using the HP300 digital dispenser (Hewlett Packard, Palo Alto, CA) immediately prior to infection. The plates were transferred to BSL-2 containment and 100 μL of 1/4000 dilution of HRV14 virus stock was added to each well containing cells and serially diluted compounds. Each plate included 6 wells of infected untreated cells and 6 wells of cells containing 5 μM Rupintrivir that served as 0% and 100% virus inhibition control, respectively. Following the infection, test plates were incubated for 96 h in a tissue culture incubator set to 37° C./5% CO2. Following incubation, the H1-HeLa cells were removed from incubation and allowed to equilibrate to 25° C. Cell viability was determined by removing 100 μL of culture medium and adding 100 μL of Cell-Titer Glo viability reagent. The mixtures were incubated on a shaker for 10 minutes at 25° C., and the luminescence signal was quantified on an Envision luminescence plate reader.

The subject of the next series is HRV10. Nature of the series: HRV10 HELA EC50. The series is classed as cell-based.
For a further series, the system named is HRV99. Kind of series: HRV99 EC50. The series is classed as cell-based.
The next series deals with HRV1a. Kind of series: HRV1A HELA EC50 (cytopathic effect in H1-HeLa cells). The series is classed as cell-based. Particulars: 96 h, read-out: HRV1A HELA EC50. As for the experimental part:
as §1, with “HRV1a” for “HRV14”

The mark [5] stands for this setting: human respiratory syncytial virus, NHBE, 96 h.
The mark [6] stands for this setting: human respiratory syncytial virus, HEp-2, 96 h.

Turning to `CCOC(=O)[C@H](C)N[P@](=O)(OC[C@@]1(C#N)O[C@@H](c2ccc3c(N)ncnn23)[C@@H]2OC(OCC)O[C@@H]21)Oc1ccccc1` (stereo partly drawn) [Example 233, ethyl ((S)-(((3aS,4R,6S,6aS)-6-(4-aminopyrrolo[2,1-f][1,2,4]triazin-7-yl)-4-cyano-2-ethoxytetrahydrofuro[3,4-d][1,3]dioxol-4-yl)methoxy)(phenoxy)phosphoryl)-L-alaninate], the EC50 was 3350 nM in the series on HRV16, over 4640 nM in the series on RSV A2 (setting [5]), 1750 nM with RSV strain A2 (setting [6]) and 35800 nM in the series with DENV2 replicon. This molecule registered a CC50 in series [1] of over 50000 nM.

Consider `CC(C)OC(=O)[C@H](C)N[P@](=O)(OC[C@@]1(C#N)O[C@@H](c2ccc3c(N)ncnn23)[C@H](O)[C@@H]1OC(=O)C(C)C)Oc1ccccc1` (single isomer, unassigned) [Example 241], for which the EC50 in the series with RSV A2 (setting [5]) is 190 nM; with RSV strain A2 (setting [6]), 293 nM; in the series with DENV2 replicon, 15500 nM. For the same molecule, the CC50 (in [1]; in “in vitro [2]”) was over 50000 nM in each case.

`COC(=O)[C@H](C)N[P@](=O)(OC[C@@]1(C#N)O[C@@H](c2ccc3c(N)ncnn23)[C@H](OC(=O)C(C)C)[C@@H]1O)Oc1ccccc1` [Example 250, (2S,3R,4S,5R)-2-(4-aminopyrrolo[2,1-f][1,2,4]triazin-7-yl)-5-cyano-4-hydroxy-5-((((S)—(((S)-1-methoxy-1-oxopropan-2-yl)amino)(phenoxy)phosphoryl)oxy)methyl)tetrahydrofuran-3-yl isobutyrate]: the EC50 with HRV16 was determined as 1180 nM; in the series on RSV A2 (setting [5]), 51 nM; with RSV strain A2 (setting [6]), 69 nM. Further, the CC50 in [1] was over 50000 nM.

In the case of `C[C@H](NP(=O)(OC[C@@]1(C#N)O[C@@H](c2ccc3c(N)ncnn23)[C@H](O)[C@@H]1O)Oc1ccccc1)C(=O)OC1CCCCCCC1` (single isomer, unassigned) [Example 173], the EC50 in [3] amounted to 1210 nM; with RSV A strain A2 (human respiratory syncytial virus, HAE, 72 h), 22 nM; in the series with RSV A2, 282 nM; in the series on RSV strain A2 it was 156 nM.

As for `CC(C)OC(=O)[C@H](C)N[P@](=O)(OC[C@@]1(C#N)O[C@@H](c2ccc3c(N)ncnn23)[C@H](OC(=O)C(C)C)[C@@H]1O)Oc1ccccc1` (single isomer, unassigned) [Example 240], the CC50 (in “in vitro [4]”; in series [1]; in “in vitro [2]”) was over 50000 nM in each case. For the same molecule, the EC50 in the series with HRV16 worked out at 1310 nM; in the series with RSV A2 (setting [5]) it was 190 nM; with RSV strain A2 (setting [6]) it was 166 nM; in the series with DENV2 replicon, 10600 nM.

As to `CC(C)C(=O)O[C@H]1[C@H](c2ccc3c(N)ncnn23)O[C@](C#N)(CO[P@@](=O)(N[C@@H](C)C(=O)OC2CCCCC2)Oc2ccccc2)[C@H]1O` (single isomer, unassigned) [Example 205], the EC50 is 417 nM with HRV16, 27 nM with RSV A2 (setting [5]), 101 nM with RSV strain A2 (setting [6]) and 6100 nM in the series with DENV2 replicon. Also, the CC50 in series [1] was 58600 nM.

As for `CC(C)C(=O)O[C@H]1[C@@H](O)[C@H](c2ccc3c(N)ncnn23)O[C@]1(C#N)CO[P@@](=O)(N[C@@H](C)C(=O)OC1CCCCC1)Oc1ccccc1` (single isomer, unassigned) [Example 206], the EC50 in the series on RSV A2 (setting [5]) is 62 nM; with RSV strain A2 (setting [6]), 85 nM. Further, the CC50 in series [1] is 55200 nM; in “in vitro [2]”, 16600 nM.

As to `CC1CCC(OC(=O)C(C)NP(=O)(OCC2(C#N)OC(c3ccc4c(N)ncnn34)C(O)C2O)Oc2ccccc2)CC1` (centres unmarked) [Example 143], the EC50 was 157 nM in the series on RSV A strain A2 (HAE cells, RSV A2, 3 days); 53 nM with RSV A2; 142 nM with RSV strain A2.

As for `C[C@H](NP(=O)(OC[C@@]1(C#N)O[C@@H](c2ccc3c(N)ncnn23)[C@H](O)[C@@H]1O)Oc1ccccc1)C(=O)OCC1CCC1` (mixture of isomers) [Example 2, (2S)-cyclobutylmethyl 2-(((((2R,3S,4R,5S)-5-(4-aminopyrrolo[2,1-f][1,2,4]triazin-7-yl)-2-cyano-3,4-dihydroxytetrahydrofuran-2-yl)methoxy)(phenoxy)phosphoryl)amino)propanoate], the EC50 with HRV14 was found to be 340 nM; in the series with HRV16, 353 nM; with RSV A2 (setting [5]) it was 122 nM; in the series with HRV10 it was 114 nM; in the series with HRV99, 708 nM; with HRV1a, 106 nM. Besides, in the series with RSV strain A2 (setting [6]), the EC50 was found to be 56 nM.

By EC50 is commonly meant the concentration at which the effect is half-maximal.
